{
  "source": "patent US20120022149A1",
  "about": "“PHARMACEUTICAL COMPOSITION WITH ENHANCED SOLUBILITY CHARACTERISTICS” (priority 2010, published 2012)",
  "test": "Solubility of olopatadine in PEG 6000 and/or PVP vehicles",
  "assay_type": "physicochemical",
  "conditions": "Table 1 and FIG. 1",
  "data": [
    {"compound": "CN(C)CC/C=C1/c2ccccc2COc2ccc(CC(=O)O)cc21", "note": "[olopatadine]", "values": [
      {"measurement": "solubility of olopatadine relative to the concentration of PEG6000", "result": "essentially linear"}
    ]}
  ]
}
